Experimental findings from PubChem BioAssay (NCI) are described below.

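These data come from cells grown in 96-well plates and exposed to compound for 48 hours at five concentrations. GI50 is the concentration that inhibits growth by half. TGI: total growth inhibition.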

The test system of the first assay is 786-0 renal. Briefly: inhibition of tumour cell growth, NCI panel, 48 h.
For the compound `Oc1cn(-c2ccc(Cl)cc2)nc1-c1n[nH]c(=S)n1C1CCCCC1`, the GI50 is 1.82 µM and the TGI is greater than 100 µM.
Taken in the same sequence, the figures for `O=C(/C=C/c1cc(CN2CCOCC2)c(O)c2ncccc12)c1cc(CN2CCOCC2)c(O)c2ncccc12` were 0.0802 µM and greater than 32.6 µM.
Taken in the same sequence, the figures for `[Au+].[Au+].[Au+].[c-]1nccn1Cc1ccccc1.[c-]1nccn1Cc1ccccc1.[c-]1nccn1Cc1ccccc1` were 1.73 µM and 3.11 µM.
Taken in the same sequence, the figures for `Cn1cc(C2=C(c3cn(CCCCCN)c4ccccc34)C(=O)NC2=O)c2ccccc21` were 9.83 µM and greater than 25 µM.
Turning to `C=C1C(=O)O[C@H]2[C@H]1CC/C(COC(=O)c1ccc(Cl)nc1)=C\CC[C@@]1(C)O[C@@H]21`, the GI50 is 1.75 µM and the TGI worked out at 3.53 µM.
Taken in the same sequence, the figures for `Cc1cc[c-]cc1.Fc1c[c-]c(-c2ccccn2)c(F)c1.[Pt+2].c1ccc(P(C[PH+](c2ccccc2)c2ccccc2)c2ccccc2)cc1` were 2.92 µM and 10.1 µM.
Taken in the same sequence, the figures for `COc1cc2ncn(-c3cc(OCCc4ccccc4)c(C(N)=O)s3)c2cc1OC` were greater than 25 µM and greater than 25 µM.
As to `CCCCC1(CN2CCOCC2)S/C(=N/c2nc(CC(=O)OCC)cs2)NC1=O` (centres undefined), the GI50 was 37.9 µM and the TGI is greater than 100 µM.
Turning to `COc1ccc(OC)c2c(/C=C/c3ccc(N(C)C)cc3)ccnc12`, the TGI was greater than 10 µM.

Another assay deals with IGROV1 ovarian. Briefly: inhibition of tumour cell growth, NCI panel, 48 h.
For `Oc1cn(-c2ccc(Cl)cc2)nc1-c1n[nH]c(=S)n1C1CCCCC1`, the GI50 is 24.2 µM and the TGI was greater than 100 µM.
In the same order, the values of `O=C(/C=C/c1cc(CN2CCOCC2)c(O)c2ncccc12)c1cc(CN2CCOCC2)c(O)c2ncccc12` are 0.0682 µM and greater than 66.6 µM.
As to `[Au+].[Au+].[Au+].[c-]1nccn1Cc1ccccc1.[c-]1nccn1Cc1ccccc1.[c-]1nccn1Cc1ccccc1`, the GI50 was 3.48 µM and the TGI worked out at 7.92 µM.
Consider `Cn1cc(C2=C(c3cn(CCCCCN)c4ccccc34)C(=O)NC2=O)c2ccccc21`, for which the GI50 was 14.7 µM and the TGI is greater than 25 µM.
`C=C1C(=O)O[C@H]2[C@H]1CC/C(COC(=O)c1ccc(Cl)nc1)=C\CC[C@@]1(C)O[C@@H]21`: the GI50 was 1.43 µM and the TGI is 6.2 µM.
In the same order, the values of `Cc1cc[c-]cc1.Fc1c[c-]c(-c2ccccn2)c(F)c1.[Pt+2].c1ccc(P(C[PH+](c2ccccc2)c2ccccc2)c2ccccc2)cc1` are 2.11 µM and 12.2 µM.
In the same order, the values of `COc1cc2ncn(-c3cc(OCCc4ccccc4)c(C(N)=O)s3)c2cc1OC` are greater than 25 µM and greater than 25 µM.
Turning to `CCCCC1(CN2CCOCC2)S/C(=N/c2nc(CC(=O)OCC)cs2)NC1=O` (centres undefined), the GI50 is 55.3 µM and the TGI is greater than 100 µM.
Consider `COc1ccc(OC)c2c(/C=C/c3ccc(N(C)C)cc3)ccnc12`, for which the TGI was greater than 10 µM.

A further assay deals with LOX IMVI melanoma. Kind of assay: inhibition of tumour cell growth, NCI panel, 48 h.
As to `Oc1cn(-c2ccc(Cl)cc2)nc1-c1n[nH]c(=S)n1C1CCCCC1`, the GI50 is 0.451 µM and the TGI is greater than 100 µM.
Consider `O=C(/C=C/c1cc(CN2CCOCC2)c(O)c2ncccc12)c1cc(CN2CCOCC2)c(O)c2ncccc12`, for which the GI50 was 0.0394 µM and the TGI was greater than 100 µM.
In the same order, the values of `[Au+].[Au+].[Au+].[c-]1nccn1Cc1ccccc1.[c-]1nccn1Cc1ccccc1.[c-]1nccn1Cc1ccccc1` are 1.56 µM and 3.08 µM.
In the same order, the values of `Cn1cc(C2=C(c3cn(CCCCCN)c4ccccc34)C(=O)NC2=O)c2ccccc21` are 4.9 µM and 13.5 µM.
In the case of `C=C1C(=O)O[C@H]2[C@H]1CC/C(COC(=O)c1ccc(Cl)nc1)=C\CC[C@@]1(C)O[C@@H]21`, the GI50 is 1.58 µM and the TGI was 3.33 µM.
Taken in the same sequence, the figures for `Cc1cc[c-]cc1.Fc1c[c-]c(-c2ccccn2)c(F)c1.[Pt+2].c1ccc(P(C[PH+](c2ccccc2)c2ccccc2)c2ccccc2)cc1` were 2.19 µM and 6.24 µM.
For the compound `COc1cc2ncn(-c3cc(OCCc4ccccc4)c(C(N)=O)s3)c2cc1OC`, the GI50 was greater than 25 µM and the TGI was greater than 25 µM.
As to `CCCCC1(CN2CCOCC2)S/C(=N/c2nc(CC(=O)OCC)cs2)NC1=O` (centres undefined), the GI50 was 20.3 µM and the TGI was determined as 42.5 µM.
On to `COc1ccc(OC)c2c(/C=C/c3ccc(N(C)C)cc3)ccnc12`, for which the TGI is greater than 10 µM.

In a further assay the test system is MCF7 breast. Kind of assay: inhibition of tumour cell growth, NCI panel, 48 h.
For the compound `Oc1cn(-c2ccc(Cl)cc2)nc1-c1n[nH]c(=S)n1C1CCCCC1`, the TGI was greater than 100 µM.
In the case of `O=C(/C=C/c1cc(CN2CCOCC2)c(O)c2ncccc12)c1cc(CN2CCOCC2)c(O)c2ncccc12`, the GI50 was less than 0.0175 µM and the TGI was greater than 100 µM.
In the same order, the values of `[Au+].[Au+].[Au+].[c-]1nccn1Cc1ccccc1.[c-]1nccn1Cc1ccccc1.[c-]1nccn1Cc1ccccc1` are 10.7 µM and 39 µM.
In the same order, the values of `Cn1cc(C2=C(c3cn(CCCCCN)c4ccccc34)C(=O)NC2=O)c2ccccc21` are 5.51 µM and greater than 18 µM.
Taken in the same sequence, the figures for `C=C1C(=O)O[C@H]2[C@H]1CC/C(COC(=O)c1ccc(Cl)nc1)=C\CC[C@@]1(C)O[C@@H]21` were 1.08 µM and 3.72 µM.
Take `Cc1cc[c-]cc1.Fc1c[c-]c(-c2ccccn2)c(F)c1.[Pt+2].c1ccc(P(C[PH+](c2ccccc2)c2ccccc2)c2ccccc2)cc1`: the GI50 was 2.33 µM and the TGI worked out at 7.83 µM.
In the same order, the values of `COc1cc2ncn(-c3cc(OCCc4ccccc4)c(C(N)=O)s3)c2cc1OC` are 10.1 µM and greater than 25 µM.
In the same order, the values of `CCCCC1(CN2CCOCC2)S/C(=N/c2nc(CC(=O)OCC)cs2)NC1=O` (centres undefined) are 34.4 µM and greater than 100 µM.
Compound `COc1ccc(OC)c2c(/C=C/c3ccc(N(C)C)cc3)ccnc12` registered a TGI greater than 10 µM.

For the next assay, the system named is NCI-H522 lung. Kind of assay: inhibition of tumour cell growth, NCI panel, 48 h.
Consider `Oc1cn(-c2ccc(Cl)cc2)nc1-c1n[nH]c(=S)n1C1CCCCC1`, for which the GI50 is 0.373 µM and the TGI is greater than 100 µM.
Taken in the same sequence, the figures for `O=C(/C=C/c1cc(CN2CCOCC2)c(O)c2ncccc12)c1cc(CN2CCOCC2)c(O)c2ncccc12` were 0.0208 µM and greater than 53.7 µM.
As to `[Au+].[Au+].[Au+].[c-]1nccn1Cc1ccccc1.[c-]1nccn1Cc1ccccc1.[c-]1nccn1Cc1ccccc1`, the GI50 is 1.58 µM and the TGI was determined as 2.95 µM.
In the same order, the values of `Cn1cc(C2=C(c3cn(CCCCCN)c4ccccc34)C(=O)NC2=O)c2ccccc21` are 15.5 µM and greater than 25 µM.
In the same order, the values of `C=C1C(=O)O[C@H]2[C@H]1CC/C(COC(=O)c1ccc(Cl)nc1)=C\CC[C@@]1(C)O[C@@H]21` are 1.59 µM and 3.82 µM.
In the same order, the values of `Cc1cc[c-]cc1.Fc1c[c-]c(-c2ccccn2)c(F)c1.[Pt+2].c1ccc(P(C[PH+](c2ccccc2)c2ccccc2)c2ccccc2)cc1` are 2.12 µM and 8.27 µM.
On to `COc1cc2ncn(-c3cc(OCCc4ccccc4)c(C(N)=O)s3)c2cc1OC`, for which the GI50 was greater than 18.1 µM and the TGI was greater than 25 µM.
Taken in the same sequence, the figures for `CCCCC1(CN2CCOCC2)S/C(=N/c2nc(CC(=O)OCC)cs2)NC1=O` (centres undefined) were 32.1 µM and greater than 100 µM.
For the compound `COc1ccc(OC)c2c(/C=C/c3ccc(N(C)C)cc3)ccnc12`, the TGI was greater than 10 µM.
